Experimental data published in ChEMBL document CHEMBL4229425, “Discovery and characterization of N-(1,3-dialkyl-1H-indazol-6-yl)-1H-pyrazolo[4,3-b]pyridin-3-amine scaffold as mGlu4 positive allosteric modulators that mitigate CYP1A2 induction liability” (Bioorg Med Chem Lett, 2018).
pEC50, pIC50: −log10 of the molar value.

system: not listed separately; assay: Brain to plasma partition coefficient, Kp of the compound in rat at 10 mg/kg, po after 1 hr; type: ADME, organism-based; settings: brain and plasma

Row | Kp at 1 h | SMILES
1 | 1.04 | Cn1nc(C2CC2)c2ccc(Nc3n[nH]c4cccnc34)cc21

system: not listed separately; assay: Drug uptake in rat brain at 10 mg/kg, po after 1 hr; type: ADME, organism-based; settings: read-out: Drug uptake

Row | concentration at 1 h | SMILES
2 | 816 ng/g | Cn1nc(C2CC2)c2ccc(Nc3n[nH]c4cccnc34)cc21

molecular target: T1, Metabotropic glutamate receptor 4 (Homo sapiens, UniProt Q14833); assay: Positive allosteric modulation of human mGluR4 expressed in CHO cells co-expressing Gqi5 assessed as increase in glutamate-induced calcium flux preincubated for 2.5 mins followed by glutamate addition by Fluo-4-AM dye based fluorescence assay; type: functional, cell-based; settings: cho
T1 sequence (Q14833 whole entry): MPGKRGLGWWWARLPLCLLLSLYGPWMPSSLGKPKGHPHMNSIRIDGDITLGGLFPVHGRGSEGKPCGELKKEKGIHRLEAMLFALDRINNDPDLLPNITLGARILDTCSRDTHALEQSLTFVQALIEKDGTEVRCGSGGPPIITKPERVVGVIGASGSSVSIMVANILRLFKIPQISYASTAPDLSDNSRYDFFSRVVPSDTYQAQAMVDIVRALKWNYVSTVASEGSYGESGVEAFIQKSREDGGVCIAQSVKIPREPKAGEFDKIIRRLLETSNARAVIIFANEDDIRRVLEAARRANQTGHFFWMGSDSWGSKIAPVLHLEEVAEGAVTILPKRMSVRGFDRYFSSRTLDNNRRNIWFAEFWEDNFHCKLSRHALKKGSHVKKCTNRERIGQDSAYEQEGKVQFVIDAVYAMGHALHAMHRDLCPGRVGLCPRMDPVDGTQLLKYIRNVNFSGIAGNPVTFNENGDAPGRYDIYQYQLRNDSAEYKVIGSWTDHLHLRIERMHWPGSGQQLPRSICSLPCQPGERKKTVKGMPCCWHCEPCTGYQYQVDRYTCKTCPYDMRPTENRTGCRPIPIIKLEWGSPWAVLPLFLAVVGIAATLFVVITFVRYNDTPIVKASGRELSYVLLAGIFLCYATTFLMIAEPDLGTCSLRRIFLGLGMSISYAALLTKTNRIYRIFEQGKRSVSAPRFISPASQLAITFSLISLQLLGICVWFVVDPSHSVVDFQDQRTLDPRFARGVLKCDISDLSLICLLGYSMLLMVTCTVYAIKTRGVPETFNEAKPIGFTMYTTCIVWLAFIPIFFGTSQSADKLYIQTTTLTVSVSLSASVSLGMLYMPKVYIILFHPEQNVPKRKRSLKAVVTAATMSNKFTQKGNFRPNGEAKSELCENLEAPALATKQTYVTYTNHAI

Row | EC50 | SMILES
3 | Not Active | FC(F)(F)Cn1nc(C2CC2)c2ccc(Nc3n[nH]c4cccnc34)cc21
4 | Not Active | Cc1nnc2ccc(Nc3n[nH]c4cccnc34)cn12
5 | Not Active | Cc1c2ccc(Nc3n[nH]c4cccnc34)cc2nn1CC1CCC1
6 | Not Active | Cc1c2ccc(Nc3n[nH]c4cccnc34)cc2nn1C1CCCC1
7 | Not Active | Cc1nnc2cc(Nc3n[nH]c4cccnc34)ccn12

same assay, conditions: read-out: EC50

Row | SMILES | pEC50
8 | Cc1nn(C(C)C)c2cc(Nc3n[nH]c4cccnc34)ccc12 | 5.00
9 | Cc1nn(CC2CCC2)c2ccc(Nc3n[nH]c4cccnc34)cc12 | 7.33
10 | CN1CCC(Oc2nn(C)c3cc(Nc4n[nH]c5cccnc45)ccc23)CC1 | 5.73
11 | [2H]C([2H])([2H])Cn1nc(C2CC2)c2ccc(Nc3n[nH]c4cccnc34)cc21 | 7.44
12 | Cn1nc(C(=O)N2CCC(F)(F)CC2)c2ccc(Nc3n[nH]c4cccnc34)cc21 | 6.30
13 | Cn1nc(C2(C)CC2)c2ccc(Nc3n[nH]c4nccnc34)cc21 | 7.60
14 | Cn1nc(C(=O)NC2CC(F)(F)C2)c2ccc(Nc3n[nH]c4cccnc34)cc21 | 6.94

Now from value to molecule:

Row | pEC50 | SMILES
15 | 5.84 | Cn1nnc2ccc(Nc3n[nH]c4cccnc34)cc21
16 | 6.04 | Cn1nc(C(=O)N2CC[C@@H](F)C2)c2ccc(Nc3n[nH]c4cccnc34)cc21
17 | 6.12 | Cn1nc(C(=O)N2CC[C@H](F)C2)c2ccc(Nc3n[nH]c4cccnc34)cc21
18 | 6.34 | c1cnc2c(Nc3ccc4c(C5CC5)n[nH]c4c3)n[nH]c2c1
19 | 6.46 | Cc1nn(C)c2ccc(Nc3n[nH]c4cccnc34)cc12
20 | 6.54 | Cn1nc(C(=O)N2CCC(F)(F)C2)c2ccc(Nc3n[nH]c4cccnc34)cc21
21 | 6.58 | Cc1nn(C2CCCC2)c2ccc(Nc3n[nH]c4cccnc34)cc12
22 | 7.02 | Cn1nc(CC(F)(F)F)c2ccc(Nc3n[nH]c4cccnc34)cc21
23 | 7.02 | CCn1nc(C)c2cc(Nc3n[nH]c4cccnc34)ccc21
24 | 7.36 | Cn1nc(C2CC2)c2ccc(Nc3n[nH]c4ncccc34)cc21
25 | 7.37 | Cn1nc(C2CC2)c2ccc(Nc3n[nH]c4cccnc34)cc21

system: not listed separately; assay: Fraction unbound in human plasma; type: ADME, cell-free; settings: not given

Row | fraction unbound | SMILES
26 | 0.031 | c1cnc2c(Nc3ccc4c(C5CC5)n[nH]c4c3)n[nH]c2c1
27 | 0.03 | Cn1nc(C2CC2)c2ccc(Nc3n[nH]c4ncccc34)cc21
28 | 0.022 | Cn1nc(C2CC2)c2ccc(Nc3n[nH]c4cccnc34)cc21

system: MDR1 (P-gp); assay: Efflux ratio of permeability in MDCK-MDR1 cells; type: ADME, cell-based, Canis lupus familiaris; settings: dog

Row | efflux ratio | SMILES
29 | 1.2 | Cn1nc(C2CC2)c2ccc(Nc3n[nH]c4cccnc34)cc21

system: not listed separately; assay: Clearance in rat liver microsomes; type: ADME, microsome; settings: not given

Row | CLhep predicted | SMILES
30 | 30.8 mL/min/kg | c1cnc2c(Nc3ccc4c(C5CC5)n[nH]c4c3)n[nH]c2c1
31 | 16.1 mL/min/kg | Cn1nc(C2CC2)c2ccc(Nc3n[nH]c4ncccc34)cc21
32 | 21.5 mL/min/kg | Cn1nc(C2CC2)c2ccc(Nc3n[nH]c4cccnc34)cc21

system: not listed separately; assay: Plasma concentration in rat at 10 mg/kg, po after 1 hr; type: ADME, organism-based; settings: not given

Row | concentration at 1 h | SMILES
33 | 787 ng/mL | Cn1nc(C2CC2)c2ccc(Nc3n[nH]c4cccnc34)cc21

molecular target: T2, Cytochrome P450 1A2 (Homo sapiens, UniProt P05177); assay: Inhibition of CYP1A2 in human liver microsomes; type: ADME; settings: not given
T2 sequence (P05177 whole entry): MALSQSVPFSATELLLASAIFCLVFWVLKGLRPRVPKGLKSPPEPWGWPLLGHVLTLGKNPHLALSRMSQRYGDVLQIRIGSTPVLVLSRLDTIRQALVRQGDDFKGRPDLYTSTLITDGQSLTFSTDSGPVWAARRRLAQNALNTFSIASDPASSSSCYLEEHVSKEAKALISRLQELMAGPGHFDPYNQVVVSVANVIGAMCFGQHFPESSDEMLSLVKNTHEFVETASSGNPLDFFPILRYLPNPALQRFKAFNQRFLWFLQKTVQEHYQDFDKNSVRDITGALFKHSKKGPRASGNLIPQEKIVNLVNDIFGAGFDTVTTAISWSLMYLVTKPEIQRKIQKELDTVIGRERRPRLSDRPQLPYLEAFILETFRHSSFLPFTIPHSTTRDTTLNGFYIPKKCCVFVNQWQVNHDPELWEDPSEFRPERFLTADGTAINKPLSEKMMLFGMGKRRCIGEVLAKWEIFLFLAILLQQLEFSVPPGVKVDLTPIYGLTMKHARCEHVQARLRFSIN

Row | pIC50 | SMILES
34 | 6.55 | c1cnc2c(Nc3ccc4c(C5CC5)n[nH]c4c3)n[nH]c2c1
35 | 5.59 | Cn1nc(C2CC2)c2ccc(Nc3n[nH]c4ncccc34)cc21
36 | 6.46 | Cn1nc(C2CC2)c2ccc(Nc3n[nH]c4cccnc34)cc21

molecular target: T3, CYP1A2 (induction through the aryl hydrocarbon receptor, AhR) (Homo sapiens, UniProt P35869); assay: Activation of human AhR assessed as induction of CYP1A2 relative to control; type: ADME; settings: read-out: FC
T3 sequence (P35869 whole entry): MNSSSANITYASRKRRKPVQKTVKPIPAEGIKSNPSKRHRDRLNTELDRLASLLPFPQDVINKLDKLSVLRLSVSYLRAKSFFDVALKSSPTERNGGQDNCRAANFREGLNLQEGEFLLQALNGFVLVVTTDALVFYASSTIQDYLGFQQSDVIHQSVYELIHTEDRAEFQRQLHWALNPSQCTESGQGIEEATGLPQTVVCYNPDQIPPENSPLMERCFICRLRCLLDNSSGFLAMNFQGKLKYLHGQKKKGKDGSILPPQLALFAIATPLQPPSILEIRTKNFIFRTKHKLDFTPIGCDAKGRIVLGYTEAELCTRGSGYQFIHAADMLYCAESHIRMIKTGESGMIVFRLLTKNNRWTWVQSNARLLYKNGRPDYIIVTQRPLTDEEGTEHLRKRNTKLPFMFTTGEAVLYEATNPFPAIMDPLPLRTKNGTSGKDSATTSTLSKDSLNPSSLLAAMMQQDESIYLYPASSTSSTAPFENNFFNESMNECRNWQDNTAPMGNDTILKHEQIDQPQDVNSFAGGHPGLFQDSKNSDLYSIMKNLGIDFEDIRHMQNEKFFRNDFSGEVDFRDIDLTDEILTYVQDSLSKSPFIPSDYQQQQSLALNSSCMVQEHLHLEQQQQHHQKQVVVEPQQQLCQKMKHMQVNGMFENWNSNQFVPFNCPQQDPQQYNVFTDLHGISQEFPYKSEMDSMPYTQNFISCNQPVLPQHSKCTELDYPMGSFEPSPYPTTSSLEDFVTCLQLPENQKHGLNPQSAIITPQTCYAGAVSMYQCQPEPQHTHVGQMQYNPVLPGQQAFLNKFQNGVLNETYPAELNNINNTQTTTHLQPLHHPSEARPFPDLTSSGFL

Row | fold induction | SMILES
37 | 13.5 | c1cnc2c(Nc3ccc4c(C5CC5)n[nH]c4c3)n[nH]c2c1
38 | 2.6 | Cn1nc(C2CC2)c2ccc(Nc3n[nH]c4ncccc34)cc21
39 | 2.3 | Cn1nc(C2CC2)c2ccc(Nc3n[nH]c4cccnc34)cc21

system: not listed separately; assay: Fraction unbound in rat plasma; type: ADME, cell-free; settings: not given

Row | fraction unbound | SMILES
40 | 0.014 | c1cnc2c(Nc3ccc4c(C5CC5)n[nH]c4c3)n[nH]c2c1
41 | 0.031 | Cn1nc(C2CC2)c2ccc(Nc3n[nH]c4ncccc34)cc21
42 | 0.024 | Cn1nc(C2CC2)c2ccc(Nc3n[nH]c4cccnc34)cc21

system: not listed separately; assay: Unbound brain to plasma concentration ratio in rat at 10 mg/kg, po after 1 hr; type: ADME, organism-based; settings: brain and plasma, read-out: K(p,uu,brain)

Row | Kp uu at 1 h | SMILES
43 | 0.3 | Cn1nc(C2CC2)c2ccc(Nc3n[nH]c4cccnc34)cc21

molecular target: T1, Metabotropic glutamate receptor 4; assay: Positive allosteric modulation of human mGluR4 expressed in CHO cells co-expressing Gqi5 assessed as increase in glutamate-induced calcium flux at 30 uM preincubated for 2.5 mins followed by glutamate addition by Fluo-4-AM dye based fluorescence assay relative to PHCCC; type: functional, cell-based; settings: not given

Row | SMILES | Emax
44 | Cc1nn(C(C)C)c2cc(Nc3n[nH]c4cccnc34)ccc12 | 62%
45 | Cc1nn(CC2CCC2)c2ccc(Nc3n[nH]c4cccnc34)cc12 | 93.2%
46 | CN1CCC(Oc2nn(C)c3cc(Nc4n[nH]c5cccnc45)ccc23)CC1 | 88.3%
47 | Cn1nc(C(=O)N2CCC(F)(F)CC2)c2ccc(Nc3n[nH]c4cccnc34)cc21 | 89.5%
48 | Cn1nc(C2(C)CC2)c2ccc(Nc3n[nH]c4nccnc34)cc21 | 94.8%
49 | Cn1nc(C(=O)NC2CC(F)(F)C2)c2ccc(Nc3n[nH]c4cccnc34)cc21 | 52.2%

The next lines start with the values.

Row | Emax | SMILES
50 | 72.4% | Cn1nnc2ccc(Nc3n[nH]c4cccnc34)cc21
51 | 41.9% | Cn1nc(C(=O)N2CC[C@@H](F)C2)c2ccc(Nc3n[nH]c4cccnc34)cc21
52 | 55.5% | Cn1nc(C(=O)N2CC[C@H](F)C2)c2ccc(Nc3n[nH]c4cccnc34)cc21
53 | 76.5% | c1cnc2c(Nc3ccc4c(C5CC5)n[nH]c4c3)n[nH]c2c1
54 | 105% | Cc1nn(C)c2ccc(Nc3n[nH]c4cccnc34)cc12
55 | 57.8% | Cn1nc(C(=O)N2CCC(F)(F)C2)c2ccc(Nc3n[nH]c4cccnc34)cc21
56 | 93.8% | Cc1nn(C2CCCC2)c2ccc(Nc3n[nH]c4cccnc34)cc12
57 | 62.7% | Cn1nc(CC(F)(F)F)c2ccc(Nc3n[nH]c4cccnc34)cc21
58 | 78.3% | CCn1nc(C)c2cc(Nc3n[nH]c4cccnc34)ccc21
59 | 94.8% | Cn1nc(C2CC2)c2ccc(Nc3n[nH]c4ncccc34)cc21
60 | 88.7% | Cn1nc(C2CC2)c2ccc(Nc3n[nH]c4cccnc34)cc21
